The experiment deals with AMPA receptor. Kind of experiment: rat cortical slice, responses to AMPA (apparent equilibrium constant from righthand shift in concentration-response curve). The class given is cell-based. The note with it: righthand shift in the AMPA concentration-response curve. How it is done: The compounds useful in this invention potently and selectively block responses to NMDA and/or AMPA in a brain slice from rat cortex, and inhibit the binding of agonists and antagonists to the strychnine-insensitive site present on the NMDA receptor and/or AMPA binding to rat forebrain membranes.
The effects of compounds of the invention on responses to NMDA and AMPA were assessed using the rat cortical slice as described by Wong et al., Proc. Natl. Acad. Sci. USA, 1986, 83, 7104. The apparent equilibrium constant (Kb) was calculated from the righthand shift in the NMDA or AMPA concentration-response curves produced by the compound under test.

A value given as a limit tells only on which side of the number the result lay.

Drawing on patent US5376748A, “Nitroquinolone derivatives” (Merck Sharp & Dohme Limited, priority 1992, dated 1994), this text covers Kb for one molecule.

For `O=C1Nc2cc(Cl)ccc2CC1[N+](=O)[O-]` (stereo not shown) [Example 2, 7-Chloro-3-nitro-3,4-dihydroquinolin-2-one], the Kb was < 150 µM.
